Assay results reported in patent publication US8008093B2, “Inhibition of Hsp27 phosphorylation for the treatment of blistering disorders” (The University of North Carolina at Chapel Hill, priority 2004, dated 2011).
“Also recorded” adds a separate entry of the source.

Tests used:
HSP27 = experiment: PV IgG induced HSP27 phosphorylation in keratinocytes, immunoblot; settings: preincubated 60 mins at 37° C. with inhibitor, then 25 μM PV IgG 30 mins
Protocol: Cells were preincubated for 60 minutes at 37° C. with the p38MAPK inhibitors SB202190 or SB203580, the protein kinase C inhibitors Calphostin C or H-7, or the phospholipase C inhibitor U-73122. PV IgG (25 μM) was then added and the cells were incubated for 30 mins at 37° C., and harvested in IEF lysis buffer. Extracts were separated on 10% SDS-PAGE gels followed by immunoblotting with anti-HSP27 and anti-phosphoHSP27 antibodies.
For inhibition studies, keratinocytes were preincubated for 60 mins at 37° C. with the p38MAPK inhibitors SB202190 (100 μM) or H-7 (10 μM), or the phospholipase C inhibitor U-73122 (4 μM), after which PV IgG was added to a final concentration of 25 μM, the cells incubated for 30 mins at 37° C., and harvested in IEF lysis buffer.

[1] = system: epidermal keratinocyte cell membranes; experiment: Direct immunofluorescence of perilesional skin for bound PV IgG; settings: direct immunofluorescence of mouse skin, PV IgG+SB202190 vs PV IgG
Text: Perilesional skin biopsies were examined by direct immunofluorescence for the presence of PV IgG bound to the epidermal epithelium.

HSP25 = HSP25 phosphorylation in mouse skin extracts, 2D immunoblot; assay type: in vivo; settings: PV IgG 1.0 mg IgG/g intradermally; SB202190 6.25 μg twice; skin biopsies after 18 hours
Protocol: Skin biopsies were obtained after 18 hours of treatment and extracted in IEF lysis buffer.
FIG. 7C is an autoradiogram of an immunoblot showing cell extracts (30 μg) prepared and separated in the first dimension using 7 cm pH 4-7, non-linear IPGphor strips (Amersham Biosciences, Inc.) and in the second dimension by 10% SDS-PAGE followed by immunoblotting with antibodies to murine HSP25 using methods known in the art (see Berkowitz et al. (2005) J Biol Chem 280, 23778-23784). […] P values were calculated using student's T-test.

neonatal C57BL/6J mice = experiment: Passive transfer PV mouse model, blister formation; assay type: in vivo
Text: The passive transfer PV mouse model developed by Anhalt and Diaz (Anhalt, et al. (1992) New England Journal of Medicine 306, 1189-1196) was used to test the hypothesis that p38MAPK inhibitors can block blister formation in vivo. In this model, the IgG fraction from patients and control non-affected normal individuals was purified and passively transferred into neonatal mice (Anhalt, et al. (1992) New England Journal of Medicine 306, 1189-1196; Rock, et al. (1990) J of Clinical Investigation 85, 296-299).
For in vivo inhibitor studies, the mice were injected intradermally with PV and normal IgG (1.0 or 1.5 mg/gram body weight) as disclosed in Mascaro et al. (Clin Immunology & Immunopathology 85, 90-96 (1997)). The P38 MAPK inhibitors were administered intradermally in two doses. In the first dose, 6.25 μg SB202190 was administered two hours prior to intradermal injection of IgG. In the second dose, 6.25 μg SB202190 was mixed with PV or control IgG and injected intradermally. Each animal received a total inhibitor dose of 12.5 μg.

keratinocytes = experiment: Keratin and actin reorganization in keratinocytes, confocal microscopy; assay type: cell-based, human; settings: 25 μM PV IgG 6 hrs at 37° C.; SB202190 100 μM preincubated 60 mins
Protocol: FIGS. 5A-5C are data showing that PV IgG induced cytoskeletal reorganization can be prevented by inhibiting p38MAPK. […] Cells were stained with the indicated antibodies or fluorescein-phalloidin and analyzed by confocal microscopy.
At 37° C. Cells were fixed and stained with flourescein conjugated phalloidin (Molecular Probes, Eugene, Oreg., United States of America), pancytokeratin antibodies (clone AE1/AE3, Zymed, San Francisco, Calif., United States of America), or goat anti-human E-cadherin antibodies (R & D Systems, mc, Minneapolis, Minn., United States of America) as previously described (Hu et al., (2001) Experimental Nephrology 9, 156-164), followed by Cy2 and Cy3 conjugated secondary antibodies (Jackson Laboratories, West Grove, Pa., United States of America). Images were analyzed using a Leica SP2 AOBS confocal microscope (Leica, Bannockburn, Ill., United States of America) with an excitation wavelength of 488 nm and capture at 500-550 nm or an excitation wavelength of 561 nm and capture at 590-650 nm using a 63×objective with NA 1.4. Double labeled samples were checked for bleed though by turning off the longer wavelength laser and assaying for the absence of image. For 3 dimensional image reconstructions, serial sections were scanned at 0.244 μm and rendered using the program Volocity Version 3 (Improvision, Lexington, Mass., United States of America).

p38MAPK = p38MAPK phosphorylation in mouse skin extracts, immunoblot; assay type: in vivo; settings: PV IgG 1.0 mg IgG/g intradermally; SB202190 6.25 μg twice; skin biopsies after 18 hours
Text: FIG. 7A is an immunoblot showing LDH control, PV IgG, and PV IgG+SB202190 first equally loaded on and separated by SDS-PAGE, transferred to PVDF, and immunoblotted with antibodies to p38MAPK, phospho-p38MAPK or lactate dehydrogenase (LDH) as a loading control. Blots were developed by ECL reaction (Amersham, Piscataway, N.J., United States of America).
FIG. 7B is a bar graph illustrating signal intensity from the ECL reaction for each band from the immunoblot of FIG. 7A, quantified with a GeneGnome™ scanner (Syngene Bio Imaging, Frederick, Md., United States of America) using GeneSnap™ software (n=3, S.D. shown by error bars).

[2] = PV IgG intradermally, SB202190 two doses of 6.25 μg intradermally, after 18 hours
[3] = histology, PV IgG intradermally, SB202190 two doses of 6.25 μg intradermally, after 18 hours

## COc1ccc2c(c1)CC[C@@H]1[C@@H]2CC[C@]2(C)[C@@H](NCCCCCCN3C(=O)C=CC3=O)CC[C@@H]12 [U-73122]
HSP27
  inhibition of PV IgG induced HSP27 phosphorylation: No notable inhibition

## Oc1ccc(-c2nc(-c3ccc(F)cc3)c(-c3ccncc3)[nH]2)cc1 [SB202190, 4-(4-Fluorophenyl)-2-(4-hydroxyphenyl)-5-(4-pyridyl)1H-imidazole]
[1]
  effect on binding of PV autoantibodies to epidermal keratinocyte cell surface: did not prevent or alter the binding; also recorded: does not prevent binding
HSP25
  phosphorylation of the most negatively charged HSP25 isoform in skin extracts: inhibited; also recorded: blocked
Neonatal C57BL/6J mice; PV IgG 1 mg IgG/g body weight, skin biopsies, hematoxylin and eosin
  suprabasal acantholysis leading to blister formation: blocked
Neonatal C57BL/6J mice; PV IgG 1.5 mg IgG/gram body weight intradermally, examined 18 hours later
  Nikolsky's sign: negative Nikolsky's sign
Neonatal C57BL/6J mice; PV IgG 1.0 or 1.5 mg/gram body weight intradermally, SB202190 total 12.5 μg, after 18 hours
  blister development, clinically and histologically: failed to develop blisters
Neonatal C57BL/6J mice; [2]
  Numbers of Mice with Nikolsky Sign: Nikolsky Negative: 11
  Numbers of Mice with Nikolsky Sign: Nikolsky Positive: 1
Neonatal C57BL/6J mice; [3]
  Numbers of Mice with Suprabasilar Acantholysis: Blisters Present: 1
  Numbers of Mice with Suprabasilar Acantholysis: No Blisters: 11
keratinocytes
  actin reorganization (phalloidin staining): similarly prevented; also recorded: inhibited
  keratin filament retraction: prevented
p38MAPK
  p38MAPK phosphorylation in skin extracts: prevented; also recorded: blocked

## Calphostin C
HSP27
  inhibition of PV IgG induced HSP27 phosphorylation: No notable inhibition

## CC1CNCCN1S(=O)(=O)c1cccc2cnccc12 (stereo not drawn) [H-7]
HSP27
  inhibition of PV IgG induced HSP27 phosphorylation: No notable inhibition
